Assay results published in patent publication US5854216A, “Marker for growth hormone-releasing factor receptors” (Universite de Montreal, priority 1996, dated 1998).
Square brackets hold non-standard residues; d marks the D form. Peptide text beside a SMILES is read from it. Phe(4-NO2) = N[C@@H](Cc1ccc([N+](=O)[O-])cc1)C(=O)O

Key:
[1] = target: T1, GRF receptors ([^125 I-Tyr^10 ]hGRF(1-44)NH2 binding sites in rat adenopituitary) (Rattus norvegicus, UniProt Q02644); assay: Competitive binding assay with [^125 I-Tyr^10 ]hGRF(1-44)NH2 on anterior pituitary homogenates
T1 construct: from tissue; host or cells: rat anterior pituitary homogenate
T1 sequence (Q02644 23-423 isoform Q02644-2 limits assumed): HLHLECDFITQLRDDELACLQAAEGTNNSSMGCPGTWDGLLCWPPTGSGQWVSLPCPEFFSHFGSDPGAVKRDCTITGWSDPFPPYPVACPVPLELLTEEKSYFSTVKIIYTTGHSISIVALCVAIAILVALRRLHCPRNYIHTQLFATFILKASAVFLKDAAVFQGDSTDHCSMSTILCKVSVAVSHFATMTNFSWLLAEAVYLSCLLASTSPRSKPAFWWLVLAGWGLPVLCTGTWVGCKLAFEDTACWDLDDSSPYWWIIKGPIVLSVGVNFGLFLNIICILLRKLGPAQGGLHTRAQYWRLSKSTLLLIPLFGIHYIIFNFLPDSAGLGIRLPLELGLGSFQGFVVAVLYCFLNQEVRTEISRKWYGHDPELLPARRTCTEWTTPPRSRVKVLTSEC
Experimental: The binding of [^125 I-Tyr^10 ]hGRF(1-44)NH2 was performed on anterior pituitary homogenates as previously described (Gaudreau P. et al., J. Biol. Chem., 1992, 35:1864-1869). Briefly, anterior pituitaries (pit.) were dissected out, rinsed and homogenized for 8 sec with a Micro Ultrasonic Cell Disrupter™, in ice-cold 50 mM Tris-HCl buffer, pH 7.4, containing 5 mM MgCl2 and 5 mM EDTA (1 pit./0.5 ml). These homogenates were used immediately. Competition studies were performed using 35-50 pM [^125 I-Tyr^10 ]hGRF(1-44)NH2 as radio-ligand,50 μl of homogenate (70 to 75 μg of protein), and increasing concentrations of Nε-CF-[Lys^31 ]hGRF or other GRF analogues (0-1000 nM) or with 2.4 μM rGRF(1-29)NH2 for determination of non-specific binding, in a total volume of 300 μl of Tris-HCl buffer, pH 7.4, containing 5 mM EDTA, 5 mM MgCl2 and 0.42% BSA. Incubations were carried out at 23° C. for 60 min and stopped by centrifugation (12,000 g, 5 min, at 4° C.). The radioactivity content in the pellet was measured by gamma counting. The affinity of hGRF(1-29)NH2 was tested in each experiment to assess the validity of the assay and determine the relative affinity of the analogues. […] The Hill values indicate that all these peptides bind to the high and low affinity GRF binding sites found in the anterior pituitary.

[2] = target: T2, GRF receptor (adenylate cyclase activity in rat adenopituitary) (Rattus norvegicus, UniProt Q02644); assay: Adenylate cyclase assay on anterior pituitary homogenates (cAMP by HPLC); assay type: biochemical; conditions: Table 12; 50% of maximal cAMP accumulation induced by 1 μM hGRF(1-29)NH2; mean±SD of 2 or mean±SE of 3 to 6 experiments, 10 for hGRF(1-29)NH2
T2 construct: from tissue; host or cells: rat anterior pituitary homogenate
T2 sequence (Q02644 23-423 isoform Q02644-2 limits assumed): T1 sequence (Q02644 23-423 isoform Q02644-2 limits assumed)
Experimental: The adenylate cyclase activity Nε-CF-[Lys^31 ]hGRF was performed on anterior pituitary homogenates as previously described (Lefrangois L. and Gaudreau P., J. Chromatogr., 1993, 619:116-120). Briefly, anterior pituitaries (pit.) were dissected out, rinsed and homogenized for 8 sec with a Micro Ultrasonic Cell Disrupter™, in ice-cold 20 mM Tris-HCl buffer (pH 7.5) containing 2 mM MgCl2 and 250 mM sucrose (1 pit./0.5 ml).
Samples of anterior pituitary homogenates (30-40 μg protein) were incubated in 1.5 ml Eppendorf™ tubes with 30 mM Tris-HCl, 5 mM MgCl2, 0.5 mM EGTA, containing 0.5 mM ATP, 1 mM IBMX, 10 μM GTP and an ATP regenerating system consisting of 2 mM creatine phosphate, 0.1 mg/ml creatine kinase and, 0.1 mg/ml myokinase in a final volume of 120 μl. Incubations were initiated by adding 20 μl of the homogenate to the reaction mixture which had previously been equilibrated at 37° C. for 2 min. The reactions were carried out for 8 min at 37° C. and stopped by heating the samples in boiling water for 4 min. Samples were centrifuged (12000 g, 5 min, 4° C.) and supernatants were filtered through 0.45 μm Millex HV4 ™ filters and transferred to autosampler vials for HPLC quantification of cAMP.

[3] = Table 11, mean±SD of 2 or mean±SE of 3 experiments for analogues, mean±SE of 11 for hGRF(1-29)NH2

SMILES | IC50 [1, 3] [nM] | IC50 [2] [nM] | IC50 (in words) [1] | other results
CC[C@H](C)[C@H](NC(=O)[C@H](C)NC(=O)[C@H](CC(=O)O)NC(=O)[C@@H](C)NC(=O)[C@@H](N)Cc1ccc(O)cc1)C(=O)N[C@@H](Cc1ccccc1)C(=O)N[C@H](C(=O)N[C@@H](CC(N)=O)C(=O)N[C@@H](CO)C(=O)N[C@H](Cc1ccc(O)cc1)C(=O)N[C@@H](CCCNC(=N)N)C(=O)N[C@@H](CCCCN)C(=O)N[C@H](C(=O)N[C@@H](CC(C)C)C(=O)N[C@H](C)C(=O)N[C@@H](CCC(N)=O)C(=O)N[C@@H](CC(C)C)C(=O)N[C@@H](CO)C(=O)N[C@@H](C)C(=O)N[C@@H](CCCNC(=N)N)C(=O)N[C@H](CCCCN)C(=O)N[C@@H](CC(C)C)C(=O)N[C@@H](CC(C)C)C(=O)N[C@@H](CCC(N)=O)C(=O)N[C@@H](CC(=O)O)C(=O)N[C@H](C(=O)N[C@@H](CCSC)C(=O)N[C@@H](CO)C(=O)N[C@@H](CCCNC(=N)N)C(N)=O)[C@@H](C)CC)C(C)C)[C@@H](C)O [D-Ala^2, D-Tyr^10, D-Ala^15, D-Lys^21] (H-Y[dA]DAIFTNS[dY]RKVL[dA]QLSAR[dK]LLQDIMSR-NH2) | 31.6 ± 11.7 | 136 ± 50 | – | –
CC[C@H](C)[C@H](NC(=O)[C@H](C)NC(=O)[C@H](CC(=O)O)NC(=O)[C@@H](C)NC(=O)[C@@H](N)Cc1ccc(O)cc1)C(=O)N[C@@H](Cc1ccccc1)C(=O)N[C@H](C(=O)N[C@@H](CC(N)=O)C(=O)N[C@@H](CO)C(=O)N[C@H](Cc1ccc(O)cc1)C(=O)N[C@@H](CCCNC(=N)N)C(=O)N[C@@H](CCCCN)C(=O)N[C@H](C(=O)N[C@@H](CC(C)C)C(=O)N[C@H](C)C(=O)N[C@@H](CCC(N)=O)C(=O)N[C@@H](CC(C)C)C(=O)N[C@@H](CO)C(=O)N[C@@H](C)C(=O)N[C@@H](CCCNC(=N)N)C(=O)N[C@@H](CCCCN)C(=O)N[C@@H](CC(C)C)C(=O)N[C@@H](CC(C)C)C(=O)N[C@@H](CCC(N)=O)C(=O)N[C@@H](CC(=O)O)C(=O)N[C@H](C(=O)N[C@@H](CCSC)C(=O)N[C@@H](CO)C(=O)N[C@@H](CCCNC(=N)N)C(N)=O)[C@@H](C)CC)C(C)C)[C@@H](C)O [D-Ala^2, D-Tyr^10, D-Ala^15] (H-Y[dA]DAIFTNS[dY]RKVL[dA]QLSARKLLQDIMSR-NH2) | 13.1 ± 0.9 | 176 ± 87 | – | –
CC[C@H](C)[C@H](NC(=O)[C@H](C)NC(=O)[C@H](CC(=O)O)NC(=O)[C@H](C)NC(=O)[C@@H](N)Cc1ccc(O)cc1)C(=O)N[C@@H](Cc1ccccc1)C(=O)N[C@H](C(=O)N[C@H](CC(N)=O)C(=O)N[C@@H](CO)C(=O)N[C@@H](Cc1ccc(O)cc1)C(=O)N[C@@H](CCCNC(=N)N)C(=O)N[C@@H](CCCCN)C(=O)N[C@H](C(=O)N[C@@H](CC(C)C)C(=O)NCC(=O)N[C@@H](CCC(N)=O)C(=O)N[C@@H](CC(C)C)C(=O)N[C@@H](CO)C(=O)N[C@@H](C)C(=O)N[C@@H](CCCNC(=N)N)C(=O)N[C@@H](CCCCN)C(=O)N[C@H](CC(C)C)C(=O)N[C@@H](CC(C)C)C(=O)N[C@@H](CCC(N)=O)C(=O)N[C@@H](CC(=O)O)C(=O)N[C@H](C(=O)N[C@@H](CCSC)C(=O)N[C@@H](CO)C(=O)N[C@@H](CCCNC(=N)N)C(N)=O)[C@@H](C)CC)C(C)C)[C@@H](C)O [D-Ans^8, D-Leu^22] | 4.9 ± 3.25 | 67 ± 24 | – | –
CC[C@H](C)[C@H](NC(=O)[C@H](C)NC(=O)[C@H](CC(=O)O)NC(=O)[C@H](C)NC(=O)[C@H](Cc1ccc(O)cc1)NC(=O)[C@@H](N)Cc1ccc([N+](=O)[O-])cc1)C(=O)N[C@@H](Cc1ccccc1)C(=O)N[C@H](C(=O)N[C@@H](CC(N)=O)C(=O)N[C@@H](CO)C(=O)N[C@@H](Cc1ccc(O)cc1)C(=O)N[C@@H](CCCNC(=N)N)C(=O)N[C@@H](CCCCN)C(=O)N[C@H](C(=O)N[C@@H](CC(C)C)C(=O)NCC(=O)N[C@@H](CCC(N)=O)C(=O)N[C@@H](CC(C)C)C(=O)N[C@@H](CO)C(=O)N[C@@H](C)C(=O)N[C@@H](CCCNC(=N)N)C(=O)N[C@@H](CCCCN)C(=O)N[C@@H](CC(C)C)C(=O)N[C@@H](CC(C)C)C(=O)N[C@@H](CCC(N)=O)C(=O)N[C@@H](CC(=O)O)C(=O)N[C@H](C(=O)N[C@@H](CCSC)C(=O)N[C@@H](CO)C(=O)N[C@@H](CCCNC(=N)N)C(N)=O)[C@@H](C)CC)C(C)C)[C@@H](C)O [npa0] | – | – | – | Hill coef. ([1]; Table 7): 0.63 ± 0.09; IC50 ([1]; Table 7, mean±SD of 2 or mean±SE of 3-6 experiments for analogues, mean±SE of 29 for hGRF(1-29)NH2): 18.3 ± 5.9 nM; Relative affinity ([1]; Table 7, ratio IC50 of hGRF(1-29)NH2 /IC50 analogue): 14 ± 5%
CC[C@H](C)[C@H](NC(=O)[C@H](C)NC(=O)[C@H](CC(=O)O)NC(=O)[C@H](C)NC(=O)[C@@H](N)Cc1ccc(O)cc1)C(=O)N[C@@H](Cc1ccccc1)C(=O)N[C@H](C(=O)N[C@@H](CC(N)=O)C(=O)N[C@@H](Cc1ccc([N+](=O)[O-])cc1)C(=O)N[C@@H](Cc1ccc(O)cc1)C(=O)N[C@@H](CCCNC(=N)N)C(=O)N[C@@H](CCCCN)C(=O)N[C@H](C(=O)N[C@@H](CC(C)C)C(=O)NCC(=O)N[C@@H](CCC(N)=O)C(=O)N[C@@H](CC(C)C)C(=O)N[C@@H](CO)C(=O)N[C@@H](C)C(=O)N[C@@H](CCCNC(=N)N)C(=O)N[C@@H](CCCCN)C(=O)N[C@@H](CC(C)C)C(=O)N[C@@H](CC(C)C)C(=O)N[C@@H](CCC(N)=O)C(=O)N[C@@H](CC(=O)O)C(=O)N[C@H](C(=O)N[C@@H](CCSC)C(=O)N[C@@H](CO)C(=O)N[C@@H](CCCNC(=N)N)C(N)=O)[C@@H](C)CC)C(C)C)[C@@H](C)O [npa^9, [4'-nitro-phenylanalylalanine^9]hGRF(1-29)NH2] (H-YADAIFTN[Phe(4-NO2)]YRKVLGQLSARKLLQDIMSR-NH2) | – | – | low nanomolar range | –
CC[C@H](C)[C@H](NC(=O)[C@H](C)NC(=O)[C@H](CC(=O)O)NC(=O)[C@H](C)NC(=O)[C@@H](N)Cc1ccc(O)cc1)C(=O)N[C@@H](Cc1ccccc1)C(=O)N[C@H](C(=O)N[C@@H](CC(N)=O)C(=O)N[C@@H](CO)C(=O)N[C@@H](Cc1ccc([N+](=O)[O-])cc1)C(=O)N[C@@H](CCCNC(=N)N)C(=O)N[C@@H](CCCCN)C(=O)N[C@H](C(=O)N[C@@H](CC(C)C)C(=O)NCC(=O)N[C@@H](CCC(N)=O)C(=O)N[C@@H](CC(C)C)C(=O)N[C@@H](CO)C(=O)N[C@@H](C)C(=O)N[C@@H](CCCNC(=N)N)C(=O)N[C@@H](CCCCN)C(=O)N[C@@H](CC(C)C)C(=O)N[C@@H](CC(C)C)C(=O)N[C@@H](CCC(N)=O)C(=O)N[C@@H](CC(=O)O)C(=O)N[C@H](C(=O)N[C@@H](CCSC)C(=O)N[C@@H](CO)C(=O)N[C@@H](CCCNC(=N)N)C(N)=O)[C@@H](C)CC)C(C)C)[C@@H](C)O [npa^10, [4'-nitro-phenylalanine^10]hGRF(1-29)NH2] (H-YADAIFTNS[Phe(4-NO2)]RKVLGQLSARKLLQDIMSR-NH2) | – | – | low nanomolar range | –
